{"source": "patent US20190269705A1", "about": "“METHODS AND MATERIALS FOR TREATING GRAFT VERSUS HOST DISEASE” (Regents of the University of Minnesota, priority 2017, published 2019)", "key": {"Th17 cells [1]": {"tested_on": "Th17 cells", "experiment": "Intracellular metabolites by mass spectrometry and pathway analysis, Th17", "type": "cell-based, mouse", "conditions": "for Hits: Th17 Pathway", "description": "Glucose uptake assays were performed as described elsewhere (see, e.g., Macintyre et al., 2014 Cell Metab. 20(1):61-72). Naïve CD4+ T cells were differentiated into Th1 and Th17 cells, in triplicate, in the presence or absence of CB839 over 5 days and spun down after reisolation using CD4 kit as previously described. Cells were washed 2× in PBS, counted, then rested in 1 mL Kreb's Ringers HEPES (KRH) for 10 minutes. Cells were spun and resuspended to 5×10^5 cells/50 uL KRH for glucose uptake assay. Briefly, cells were […]. Cells incubated for 10 minutes at 37° C. Immediately after incubation, reaction was quenched with 200 μM phloretin (Calbiochem, Cat #: 524488). Cells were spun, washed, and then resuspended in scint fluid for counting on Beckman-Coulter scintillation counter. Pathway analysis of altered metabolites was performed using Metaboanalyst 3.0 (metaboanalyst. ca/faces/home.xhtml).\nDifferentiation: CD4 cells were isolated as previously described and differentiated in subset-specific medium (in triplicate) for 3 days, split at day 3 with new media and IL-2, then allowed to incubate a further 2 days. At day 5, wells were combined, cells washed lx in MACS buffer, re-isolated for CD4 via AutoMACS Pro automated magnetic separator (Miltenyi, Cat #: 130-092-545). Metabolites from Th1 and Th17 cells were extracted as described above.\nDifferentiation. CD4 cells were isolated as previously described and differentiated in subset-specific medium in the presence of vehicle or CB839 (in triplicate) for 3 days, split at day 3 with new media and IL-2, then allowed to incubate a further 2 days. At day 5, wells were combined, cells washed 1× in MACS buffer and re-isolated for CD4 via AutoMACS Pro automated magnetic separator (Miltenyi, Cat #: 130-092-545). Metabolites from Th1 and Th17 cells were extracted and analyzed by LC-HRMS using a Q-Exactive as described previously (Gerriets et al., 2015). Data were range scaled and analyzed using Metaboanalyst 3.5 (Xia and Wishart, 2002) to generate heat maps and for principle component analyses."}, "naïve CD4+ T cells": {"tested_on": "naïve CD4+ T cells", "experiment": "Extracellular Acidification Rate on instantaneous T cell activation (Seahorse)", "type": "cell-based, mouse", "conditions": "αCD3/CD28 injection in the presence of vehicle or CB839", "description": "Experiments were carried out on Agilent Seahorse XF96 bioanalyzer (Agilent). Briefly, wild type CD4+ cells were isolated as previous and activated for 3 days on CD3/CD28 as previously described, or skewed to Th1 and Th17 subsets as described above. T cells were spun onto XF96 Cell-Tak (BD Bioscience, Cat #: 354240) coated plates and rested in Seahorse XF RPMI 1640 media supplemented with glutamine, sodium pyruvate, and glucose. For immediate metabolic response, CB839 and UK5099 were injected separately or in combination, and OCR and ECAR measured.\nExperiments were carried out on Agilent Seahorse XF96 bioanalyzer (Agilent). Briefly, wild type CD4+ cells were isolated as previous and activated for 3 days on αCD3/CD28 coated plates as previously described, or skewed to Th1 and Th17 subsets as described above. T cells were isolated and spun onto XF96 Cell-Tak (BD Bioscience, Cat #: 354240) coated plates and rested in Seahorse XF RPMI 1640 media supplemented with glutamine, sodium pyruvate, and glucose. For immediate metabolic response, 1 μM CB839 and 5 μM UK5099 (Cat #: PZ0160-5MG) were injected separately or in combination, and OCR and ECAR measured. For activation response, 1 uM CB839 was injected into IL-7 maintained naïve CD4+ T cells in seahorse medium and allowed to incubate for 20 minutes, followed by soluble αCD3/CD28 injection."}, "Th1 cells": {"tested_on": "Th1 cells", "experiment": "ATAC-Seq chromatin accessibility, Th1", "type": "cell-based, mouse", "conditions": "Th1, 500 nM CB839, day 5", "description": "(§1) ATAC-Seq: Crude nuclei pellets were isolated as described elsewhere (see, e.g., Buenrostro et al., 2013 Nat Meth. 10(12):1213-1218) with modifications. Briefly, naïve CD4 T cells were skewed to Th1 and Th17 subsets in vitro with vehicle or in the presence of 500 nM CB839. At Day 5, T cells were re-isolated for CD4+ cells using Miltenyi CD4+ negative selection kit (Cat #: 130-104-454). 1×10^5 cells were removed for nuclei extraction in ATAC-Seq lysing buffer. Cells were exposed to Tn5+ adaptor proteins from Nextera DNA for 30 min at 37° C. and immediately placed on ice. Transposed eluate was amplified via PCR using Nextera DNA preparation kit (Illumina, Cat #: FC-121-1030), NEBNext High-fidelity 2× PCR mix (New England Labs, Cat #: M0541), and multiplexed (Illumina, Cat #: FC-121-1011). Samples were purified using Zymo DNA cleanup kit (Cat #: D4011). QC of samples was run on bioanalyzer before being sent for sequencing. RNA-Seq: Th1 and Th17 cells skewed with or without CB839 were isolated as previously described and total RNA extracted (Qiagen RNEasy Mini kit, Cat #: 74104). RNA was sent to VANTAGE core at Vanderbilt University and sequenced on HiSeq 2500. n=3 for each sample was analyzed. Samples were analyzed using the R program DESeq2. GSEA was performed using MSigDB. […]"}, "Th17 cells [2]": {"tested_on": "Th17 cells", "experiment": "ATAC-Seq chromatin accessibility, Th17", "type": "cell-based, mouse", "conditions": "Th17, 500 nM CB839, day 5", "description": "as §1"}, "[3]": {"conditions": "mouse, in vivo"}, "[4]": {"tested_on": "hgp100-expressing vaccinia virus", "conditions": "mouse, in vivo"}}, "note": "“Also recorded” adds a separate entry of the source."}
{"smiles": "O=C(Cc1cccc(OC(F)(F)F)c1)Nc1ccc(CCCCc2nnc(NC(=O)Cc3ccccn3)s2)nn1", "note": "[CB839]", "values": [{"measurement": "2-hydroxyglutarate (2-HG)", "setting": "Th17 cells [1]; Th17, CB839-treated vs vehicle", "result": "increased in both Th1 and Th17"}, {"measurement": "intracellular α-KG", "setting": "Th17 cells [1]; Th17, CB839-treated vs vehicle", "result": "reduced in CB839-treated Th1, but not Th17 cells"}, {"measurement": "programs of intracellular metabolites", "setting": "Th17 cells [1]; Th17, differentiated with CB839, 5 days", "result": "more pronounced in Th17 than in Th1 cells; also recorded: shifted"}, {"measurement": "glutamate and aspartate levels", "setting": "Th17 cells [1]; Th17, over five days", "result": "rapidly decreased"}, {"measurement": "steady state levels of glutamine", "setting": "Th17 cells [1]; Th17, over five days", "result": "rapidly increased"}, {"measurement": "Hits", "setting": "Th17 cells [1]; Alanine, aspartate and glutamate metabolism", "result": 5}, {"measurement": "Hits", "setting": "Th17 cells [1]; Pentose phosphate pathway", "result": 5}, {"measurement": "Hits", "setting": "Th17 cells [1]; Phenylalanine, tyrosine and tryptophan biosynthesis", "result": 2}, {"measurement": "Hits", "setting": "Th17 cells [1]; Purine metabolism", "result": 8}, {"measurement": "early events in T cell activation (ECAR)", "setting": "naïve CD4+ T cells", "result": "did not to be affected"}, {"measurement": "genes with regions of altered chromatin accessibility", "setting": "Th1 cells", "result": "more genes with regions of increased accessibility than genes with decreased accessibility"}, {"measurement": "genes with regions of altered chromatin accessibility", "setting": "Th17 cells [2]", "result": "more genes with regions of reduced accessibility"}, {"measurement": "accumulation / persistence of transferred CD8 T cells", "setting": "[3]", "result": "accumulated to greater numbers in vivo by day 7; also recorded: enhances T cell persistence"}, {"measurement": "time increased cell numbers persisted", "setting": "[4]", "result": "greater than 5 weeks"}]}
